Source: patent publication US9963506B2, “Human-mouse chimeric anti-CD147 antibody with non-fucosylated glycosylation” (Fourth Military Medical University, priority 2015, dated 2018)

Columns and labels:
CD147^+ A549 cells = target: T1, CD147^+ A549 cells (Homo sapiens, UniProt P35613); assay: Antigen-binding activity by flow cytometry
T1 construct: endogenous in cells; host or cells: A549 (human lung cancer cell line)
T1 sequence (P35613 22-269 isoform P35613-2 limits assumed): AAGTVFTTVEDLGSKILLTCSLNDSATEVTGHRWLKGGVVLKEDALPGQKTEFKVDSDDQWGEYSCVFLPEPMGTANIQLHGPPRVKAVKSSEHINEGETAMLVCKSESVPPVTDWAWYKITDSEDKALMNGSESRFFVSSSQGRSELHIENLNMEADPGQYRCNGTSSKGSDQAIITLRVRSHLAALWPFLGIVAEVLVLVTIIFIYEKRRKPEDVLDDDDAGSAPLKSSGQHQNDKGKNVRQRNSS
Method: The antibody concentration is 0.001 μg/mL, 0.01 μg/mL, 0.1 μg/mL, 1 μg/ml and 10 μg/mL, respectively.
A549 cells (10^6 cells) were incubated with the Metuzumab (HcHAb18) and cHAb18 antibody, respectively, in PBS with 0.1% BSA at 4° C. for 1 h. After three washes in PBS with 0.1% BSA, cells were incubated with the FITC-conjugated Rabbit anti-Human IgG Fc Secondary Antibody (Pierce) at 4° C. in the dark for 45 min. Cells were then washed three times and suspended in PBS for analysis using a FACS Calibur flow cytometer (BD, New Jersey, U.S.). Relative antigen expression is reported as median fluorescence intensity (MFI).

NCI-H520 cells [1] = assay: Wound healing (migration) assay; type: cell-based, human
Method: (§1) Wound healing and transwell invasion assays were performed. For wound healing assay, 2×10^4 cells were plated in 24-well plate to form cell monolayer and allowed to reach confluence for 2 days. A wound was made in the monolayer (at time 0) by a 200 μl tip. After wash of the monolayer, Metuzumab solution was dispensed at 0.1 μg/ml, 1 μg/ml and 10 μg/ml, respectively, at 200 μl/well into each well. Saline was used as control. The distance between two sides of an open wound was measured under a CX71 microscope (Olympus). The distance between the two sides of the wound after 20-72 h of migration was divided by the distance at time 0 and represented on a graph. The experiments were performed in triplicates, the results were shown as mean±SD.

A549 cells [2] = assay: Wound healing (migration) assay; type: cell-based, human
Method: as §1

NCI-H446 cells = assay: ADCC assay (LDH release), human spleen effector cells; type: cell-based; details: NCI-H446 target cells
Method: (§2) NCI-H520, A549 and NCI-H446 cells (1×10^4 per well) were incubated with Metuzumab or cHAb18 mAb for 30 min at 37° C. Effector cells (Spleen cells) were added at the ratio of effector cells to […] (E/T) 50:1 for 24 hours at 37° C. in CO2 incubator. After centrifugation, supernatants were harvested and lactate dehydrogenase (LDH) activity were measured. Data represent mean±SD of five independent experiments.
(§3) The ADCC activity was determined by measuring lactate dehydrogenase (LDH) activity in the medium using a Cytotoxicity Detection Kit (LDH; Roche) according to the manufacturer's protocols.
(§4) In vitro ADCC assays were performed with human lung cancer cell lines (NCI-H520, A549 and NCI-H446) as target cells, and human spleen cells were used as effector cells. The target cells (1×10^4 per well) were washed with PBS and pre-incubated with antibodies solution for 30 min at 37° C. in serum-free RPMI-1640 supplemented with 0.1% BSA. The antibody solution (Metuzumab or the chimeric antibody cHAb18 mAb) that has been adjusted to a concentration of 0.001, 0.01, 0.1, 1 or 10 μg/ml was dispensed at 100 μl/well into each well that contained the target cells, Subsequently, 100 μl of the effector cells at an effector/target ratio of 50:1 was dispensed into each well, and incubated at in a carbon dioxide incubator. The cells were incubated for an additional 24 h prior to the detection of cell death by measuring lactate dehydrogenase (LDH) activity in the medium using a Cytotoxicity Detection Kit (LDH; Roche) according to the manufacturer's protocols. The ADCC-inducing activity was calculated to the following formula: Cytotoxicity (expressed as a percentage)=(experimental cell lysis−spontaneous effector lysis−spontaneous target lysis)/(maximum target lysis−spontaneous target lysis)×100%. All assays were performed in triplicate.

NCI-H520 cells [3] = assay: as above; type: cell-based; details: NCI-H520 target cells
Method: as §2, §3, §4

A549 cells [4] = assay: as above; type: cell-based; details: A549 target cells
Method: as §2, §3, §4

NCI-H520 cells [5] = assay: Transwell invasion assay; type: cell-based, human; details: 24 hours
Method: (§5) For invasion assay, NCI-H520 or A549 cells were serum-starved for 12 hours in DMEM containing 0.1% FBS. Serum-starved cells were trypsinized and re-suspended in DMEM containing 0.1% FBS and Metuzumab solution at 0.1 μg/ml, 1 μg/ml and 10 μg/ml, respectively. 5×10^4 cells were added to the upper chamber of each well (6.5 mm in diameter, 8-μm pore size; Corning, N.Y.) coated with […] Matrigel (BD Bioscience). Medium containing 10% FBS was placed in the lower compartment of the chamber. After 24 hours at 37° C., cells on the upper membrane surface were removed by careful wiping with a cotton swab, and the filters were fixed by treatment with 95% ethanol for 30 minutes and stained with 0.2% crystal violet solution for 30 minutes. Invasive cells adhering to the undersurface of the filter were then counted (five high-power fields/chamber) using a CX71 microscope (Olympus).

A549 cells [6] = assay: Transwell invasion assay; type: cell-based, human; details: 24 hours
Method: as §5

With “Metuzumab: human-mouse chimeric anti-CD147 IgG1, heavy chain SEQ ID NO: 4, light chain SEQ ID NO: 3, Mannose-5 glycoform lacking fucose and xylose” the “CD147-binding ability, Metuzumab compared with cHAb18” value (CD147^+ A549 cells; FIG. 4) was “similar”, the “Binding to CD147^+ A549 cells” value (CD147^+ A549 cells; FIG. 4, 0.001-10 μg/mL) was “bound” and the “migration activity decrease compared to control group” value (shortened to “migration activity decrease”) (NCI-H520 cells [1]; NCI-H520, 0.1 μg/ml) was 20.2%. The migration rate (NCI-H520 cells [1]; NCI-H520, 0.1 μg/ml (saline 18.8 μm/hr)) was 15.0 μm/hr, the “migration activity decrease” value (NCI-H520 cells [1]; NCI-H520, 1 μg/ml) was 34.0% and the migration rate (NCI-H520 cells [1]; NCI-H520, 1 μg/ml (saline 18.8 μm/hr)) was 12.4 μm/hr. For the same substance, the “migration activity decrease” value (NCI-H520 cells [1]; NCI-H520, 10 μg/ml) was 44.1%, the migration rate (NCI-H520 cells [1]; NCI-H520, 10 μg/ml (saline 18.8 μm/hr)) was 10.5 μm/hr and the “migration activity repressed compared to control group” value (A549 cells [2]; A549, 0.1 μg/ml) was 24.4%. For the same substance, the migration rate (A549 cells [2]; A549, 0.1 μg/ml (control 20.1 μm/hr)) was 15.2 μm/hr, the “migration activity repressed compared to control group” value (A549 cells [2]; A549, 1 μg/ml) was 38.3% and the migration rate (A549 cells [2]; A549, 1 μg/ml (control 20.1 μm/hr)) was 12.4 μm/hr. The “migration activity repressed compared to control group” value (A549 cells [2]; A549, 10 μg/ml) was 50%, the migration rate (A549 cells [2]; A549, 10 μg/ml (control 20.1 μm/hr)) was 10.1 μm/hr and the “ADCC-inducing activity increase over cHAb18 mAb” value (“ADCC-inducing activity increase” for short) (NCI-H446 cells) was “about 10 folds”. For the same substance, the “EC50% (ADCC)” value (NCI-H446 cells; effector/target 50:1, 24 h) was 0.11 µg/mL, the “ADCC-inducing activity increase” value (NCI-H520 cells [3]) was “about 10 folds” and the “EC50% (ADCC)” value (NCI-H520 cells [3]; effector/target 50:1, 24 h) was 0.04 µg/mL. For the same substance, the “ADCC-inducing activity increase” value (A549 cells [4]) was “about 10 folds”, the “EC50% (ADCC)” value (A549 cells [4]; effector/target 50:1, 24 h) was 0.06 µg/mL and the “invasiveness repressed compared to control groups” value (NCI-H520 cells [5]; NCI-H520, 0.1 μg/ml) was 30.0%. The “invasiveness repressed compared to control groups” value (NCI-H520 cells [5]; NCI-H520, 1 μg/ml) was 48.0%, the “invasiveness repressed compared to control groups” value (NCI-H520 cells [5]; NCI-H520, 10 μg/ml) was 66.2% and the “invasiveness repressed compared to control groups” value (A549 cells [6]; A549, 0.1 μg/ml) was 53.5%. For the same substance, the “invasiveness repressed compared to control groups” value (A549 cells [6]; A549, 1 μg/ml) was 61.5% and the “invasiveness repressed compared to control groups” value (A549 cells [6]; A549, 10 μg/ml) was 74.6%.
